Activity calls are given as the source filed them. Cut-off read from the data, not from the text of the source: active = IC50 below about 20 µM; inactive = the rest.
The compounds below were run on Gli-responsive luciferase reporter cells, SUFU pathway antagonism (assay: blockers of Gli reporter signaling – cell-based, luciferase luminescence, uHTS hits, dose response (AID 602464)).

| SMILES | IC50 |
| --- | --- |
| O=C(C[C@H]1C/C=C\C[C@H](NC(=O)OCC2c3ccccc3-c3ccccc32)C(=O)OC[C@@H]2CCCN2C1=O)N[C@H](CO)Cc1ccccc1 | > 20 µM (inactive) |
| CC1CCN(c2c(NCc3ccc(C(=O)N4c5ccccc5CC4C)cc3)c(=O)c2=O)CC1 (stereo unspecified) | 5.18 µM |
| CC(C)C(=O)N1CCN(c2ccccc2NC(=O)COc2ccccc2)CC1 | > 20 µM (inactive) |
| CC(C)CC(NC(=O)CCCNC(=O)CCC(=O)OC1O[C@H]2OC3(C)CC[C@H]4[C@H](C)CCC(C1C)C24OO3)C(=O)O (stereo partly specified) | 0.619 µM |
| CCCCOC(=O)c1[nH]c2c(c1C)C(=O)CC(c1cc(OC)c(OC)c(OC)c1)C2 (stereo unspecified) | 2.22 µM |
| COc1ccc(NS(=O)(=O)c2ccc(N3CCN(CCO)CC3)c([N+](=O)[O-])c2)cc1 | 8.77 µM |
| CCC(C)CCN1C(N(C)C)=NC[C@@H]1CC(C)C (stereo partly specified) | 7.98 µM |
| CCOC(=O)CC1CCCCN1C(=O)c1cc(COc2cccc3cnccc23)on1 (stereo unspecified) | 4.47 µM |
| C=CCn1c(O)c(N=NC(=S)Nc2cccc(C)c2)c2ccccc21 | 8.58 µM |
| CC1C(OC(=O)CCC(=O)NC(C)(C)CO)O[C@H]2OC3(C)CC[C@H]4[C@H](C)CCC1C24OO3 (stereo partly specified) | 0.368 µM |
| O=C(Cc1csc(Nc2nc(=S)[nH]c3ccccc23)n1)NCCCN1CCN(c2ccccc2F)CC1 | > 20 µM (inactive) |
| Cc1cc(C)nc(/N=C(\N)Nc2ccccc2-c2ccccc2)n1 | 12.8 µM |
| CCOC(=O)CSc1c(-c2cccs2)[nH]c2ccccc12 | 3.69 µM |
| C/C(=N\NC(=O)C(=O)Nc1ccc(C)c(Cl)c1)c1ccncc1 | 1.51 µM |
| CC1=CC(C)C2(COC(c3ccc[n+](C)c3)OC2)C(C)C1 (stereo unspecified) | 17.9 µM |
| CC(C)Cc1ccc(C(C)C(=O)Nc2cccnc2)cc1 (stereo unspecified) | 13 µM |
| O=C(Cn1cnc2ccccc21)Nc1cccc(S(=O)(=O)N2CCCC2)c1 | 9.03 µM |
| CC(=O)c1c(C)[nH]c(C(=O)OCC(=O)Nc2ccc(C)cc2[N+](=O)[O-])c1C | 0.535 µM |
| O=[N+]([O-])c1ccc(N2CCN(C(=S)NCc3ccc(Cl)cc3)CC2)cc1 | 11.9 µM |
| CN(Cc1ccc(OCC(O)CN2CCCCC2)cc1)Cc1ccnc2ccccc12 (stereo unspecified) | 8.47 µM |
| O=C(NCCNc1ccnc2cc(Cl)ccc12)c1ccccc1F | 8.19 µM |
| O=C(C[n+]1cc(-c2ccccc2)n2c1CCCCC2)c1ccc(Cl)cc1 | > 20 µM (inactive) |

| SMILES | IC50 |
| --- | --- |
| CNc1ccccc1C(C)(C)c1cc(-c2cccc(Br)c2)no1 | 2.02 µM |
| FC(F)Oc1ccc(-n2cc(-c3ccccc3)[n+]3c2CCCCC3)cc1 | 8.14 µM |
| O=C(Nc1cc2c3c(c1)C1CCCC1CN3CC1CCCC21)c1ccc([N+](=O)[O-])cc1 (stereo unspecified) | 5.09 µM |
| Cc1sc2ncnc(NCC3COc4ccccc4O3)c2c1C (stereo unspecified) | 5.17 µM |
| c1ccc(Cn2c(-c3ccccc3)c[n+]3c2SCCC3)cc1 | 6.59 µM |
| CNS(=O)(=O)c1cccc(C(=O)OCC(=O)c2cc(C)n(CC3CCCO3)c2C)c1 (stereo unspecified) | 0.735 µM |
| Cc1nc2sccn2c1-c1csc(NCc2ccccc2)n1 | 9.83 µM |
| Cc1nc2cc(N3CCN(C)CC3)c(NC(=O)Cc3ccccc3)cc2c(=O)n1Cc1ccccc1 | 12.3 µM |
| Cc1ncoc1C(=O)NC1CCCc2c1cnn2-c1ccc(C(C)(C)C)cc1 (stereo unspecified) | 7.46 µM |
| CC(=O)Nc1ccc(S(=O)(=O)N(Cc2ccccc2)C(C)C)cc1 | 8.29 µM |
| O=C(c1cc(COc2cccc3cnccc23)on1)N1CCCC(CCCO)C1 (stereo unspecified) | 1.53 µM |
| Cc1cccc(C)c1NC(=S)N(CCN1CCCCCC1)Cc1ccco1 | > 20 µM (inactive) |
| CCC(C(=O)NCCC(C)C)n1ccc2cc(S(=O)(=O)N3CCCCC3)ccc21 (stereo unspecified) | 8.88 µM |
| C=CCNc1nc2c(c(=O)n(C)c(=O)n2C)n1Cc1ccc(F)cc1 | 6.15 µM |
| CC(=O)N1c2ccc(S(=O)(=O)N3CCC(C(=O)N4CCCCC4)CC3)cc2CC1C (stereo unspecified) | 16.9 µM |
| COc1ccc(NC(=S)N2CCC(Cc3ccccc3)CC2)cc1 | 16.6 µM |
| C[N+]1(CC(=O)OC2CCCCCCCCCCC2)CCCC1 | 19.3 µM |
| Cc1ccc(S(=O)(=O)N2CCN(C(=O)c3ccc(S(=O)(=O)N4CCCC4)cc3)CC2)cc1 | > 20 µM (inactive) |
| COc1ccc(CNc2cc(C)nc3ncnn23)c(OC)c1 | 10.6 µM |
| S=C(Nc1ccccc1)N1CCC(Cc2ccccc2)CC1 | 5.67 µM |
| COc1ccccc1CCNC(=O)c1cc(-c2ccncc2)nc2ccc(Br)cc12 | > 20 µM (inactive) |
| C(#Cc1ccccc1)C[N+]1(CC#Cc2cccc3ccccc23)CCCC1 | 3.6 µM |

| SMILES | IC50 |
| --- | --- |
| O=S(=O)(c1ccc2c(c1)nc(COc1ccc(Cl)cc1)n2CC1CCCO1)N1CCOCC1 (stereo unspecified) | 3.85 µM |
| CC(C)C(=O)NC(=S)/C=C1/N(C)c2ccccc2C1(C)C | 4.76 µM |
| CC(=O)/C(=N\Nc1ccc(Cl)cc1Cl)Sc1cccc2cccnc12 | 1.12 µM |
| CC(=O)c1cn(Cc2ccccc2F)c2ccccc12 | 8.82 µM |
| CC(C)n1c(-c2ccco2)csc1=Nc1cccnc1 | 8.01 µM |
| O=C(NC(c1cccnc1)C(F)(F)F)c1cc(COc2ccc3c(c2)CCCC3)on1 (stereo unspecified) | 10.6 µM |
| Cc1nn(C)c(C)c1/C=C/C(=O)c1ccc(Cl)cc1Cl | 7.53 µM |
| COc1ccc(-n2cc(-c3ccc(OC(F)F)cc3)[n+]3c2CCCCC3)cc1 | 2.29 µM |
| CC(NC(=O)c1cc2c(=O)n3ccccc3nc2n(CC2CCCO2)c1=N)c1ccccc1 (stereo unspecified) | > 20 µM (inactive) |
| CC(C)=CCC/C(C)=C/CNC(=O)C[C@H]1C[C@H](C(=O)N2CCOCC2)[C@@]2(C)c3[nH]c4cc(CCC(=O)N(C)C)ccc4c3CCN2C1=O | 4.63 µM |
| CCCCc1ccc(NC(=O)C(=O)NCCN2CCN(Cc3ccc([N+](=O)[O-])cc3)CC2)cc1 | 8.33 µM |
| CCCCCCCNC1=CC(=O)CC(c2ccccc2)C1 (stereo unspecified) | 8.04 µM |
| CCOC(=O)c1sc2nc(CC(=O)OC)nc(NCc3ccc(Cl)cc3)c2c1C | 9.23 µM |
| CCOc1ccc(OCc2ccc(C(=O)NN=Cc3ccc[nH]3)cc2)cc1 | 2.44 µM |
| COc1cc(NS(=O)(=O)c2ccc(C)cc2C)cc(OC)c1OC | 6.71 µM |
| C=CCOC(=O)c1[nH]c2c(c1C)C(=O)CC(c1cc(OC)c(OC)c(OC)c1)C2 (stereo unspecified) | 1.98 µM |
| CCc1c(C)nc2ncnn2c1N1CCN(S(=O)(=O)c2ccc(OC)cc2)CC1 | 6.58 µM |
| O=C(c1cccc(S(=O)(=O)N2CCN(c3ccccc3)CC2)c1)N1CCCC(C(F)(F)F)C1 (stereo unspecified) | 8.01 µM |
| CCOc1ccc(S(=O)(=O)NCc2ccncc2)cc1NC(=O)c1ccccc1 | 0.94 µM |
| CC1CCC(NC(=O)c2cccc(S(=O)(=O)N3CCN(c4ccccc4)CC3)c2)CC1 (stereo unspecified) | 9.93 µM |
| CCCOc1ccc(Br)cc1CSC(=N)N | 9.84 µM |
| CC(C)C[C@H]1CN=C(N(C)C)N1CCCCc1ccccc1 | 7.93 µM |

| SMILES | IC50 |
| --- | --- |
| CCn1c(=NC(=O)CS(=O)(=O)c2ccccc2)sc2cccc(OC)c21 | 3.95 µM |
| CNc1nc(NCc2ccccc2)c2ccccc2n1 | 20 µM |
| Cc1cc(C)c[n+](C(C)C(=O)c2ccc(-c3ccccc3)cc2)c1 (stereo unspecified) | 5.92 µM |
| Cc1ccc(NC(=O)COc2ccccc2C(N)=O)cc1S(=O)(=O)N1CCCCCC1 | 12.3 µM |
| O=C(N[C@@H]1C/C=C\C[C@H](CC(=O)N(CCO)Cc2ccccc2)C(=O)N[C@@H](Cc2c[nH]c3ccccc23)COC1=O)OCC1c2ccccc2-c2ccccc21 | 10.9 µM |
| Cn1nc(CC(=O)NCc2ccc(C(F)(F)F)cc2)c2ccccc2c1=O | 6.65 µM |
| CC(=O)c1ccc(-n2cc(-c3ccc(C(C)(C)C)cc3)[n+]3c2SCCC3)cc1 | 9.87 µM |
| CC(C)(C)OC(=O)N1CCC(c2cc(-c3cccs3)n[nH]2)CC1 | > 20 µM (inactive) |
| COc1ccccc1N1CCN(c2ncc(C(=O)N3CCN(c4cccc(Cl)c4)CC3)c3ccccc23)CC1 | 6.18 µM |
| COc1ccccc1CN(Cc1nc2ccccc2c(=O)[nH]1)S(=O)(=O)c1ccc(C)cc1 | > 20 µM (inactive) |
| CCN(CC)S(=O)(=O)c1ccc(S(=O)(=O)Nc2c(C)nn(C)c2C)cc1 | 6.15 µM |
| COc1ccc2c(c1)c(C)cc[n+]2Cc1ccccc1 | 3.86 µM |
| CCn1cc[n+](C)c1P(c1ccccc1)c1ccccc1 | 8.57 µM |
| CCCCN(C(C)=O)c1ccc2c(c1)C1CC2CCN1C(=O)OCc1ccccc1 (stereo unspecified) | 6.13 µM |
| O=c1c2ccccc2sc2c(CO)ccc(NCCN3CCCCC3)c12 | > 20 µM (inactive) |
| Cc1cc(/C=C2/SC(=S)N(c3ccc([N+](=O)[O-])cc3)C2=O)c(C)n1-c1cccnc1 | 0.663 µM |
| CC(C)(C)[C@H]1COC(=O)[C@H](NC(=O)OCC2c3ccccc3-c3ccccc32)C/C=C\C[C@@H](CC(=O)N[C@@H](CO)Cc2ccccc2)C(=O)N1 | 11.9 µM |
| Cc1ccc(OCCOC(=O)c2cc(S(=O)(=O)N3CCCCC3)ccc2N2CCOCC2)cc1 | > 20 µM (inactive) |
| Cc1ccc(C)c(N2CC(O)(c3cccs3)[N+]3=C2CCCC3)c1 (stereo unspecified) | 10.4 µM |
| CC1CCN(Cc2c(C(=O)N/N=C/c3ccccc3O)nnn2-c2nonc2N)CC1 | 5.56 µM |
